“Also recorded” adds a separate entry of the source.
Key:
parental HCC-827 cells = assay: Apoptosis assay (Annexin V/7-AAD flow cytometry), parental HCC-827 cells; type: cell-based, human; details: 24 h
Description: Afterwards, the cell culture supernatant from each well was collected. […] The supernatants were then returned to each well to neutralize the Accutase solution and the cells were centrifuged at 3000 rpm, at 4 °C for 5 min. The cell pellets were washed twice with cold PBS and centrifuged again. […] Cells were resuspended in 1 x binding buffer and incubated with PE Annexin V and 7-AAD at 4 °C for 30 min. Apoptosis was measured using an LSR II flow cytometer (BD Bioscience). Experiments were carried out in at least triplicate.

[1] = tested on: STAT3 Tyr705 phosphorylation; assay: Western Blot, STAT3 Tyr705 phosphorylation in Erlotinib-resistant HCC-827 cells; type: cell-based, human; details: 24 h
Description: HepG2 cells were plated in 6-well plates (Corning #3516) and allowed to reach approximately 60% confluence. The medium was then replaced with serum-free medium for 24 h. Cells were subsequently pre-treated with compound or DMSO (final DMSO concentration: 0.2%) for 1 h at 37 °C, prior to stimulation for 15 min with 50 ng/mL IFNγ (Pepro Tech, for STAT1 phosphorylation), or 30 min with 50 ng/mL IL-6 (Pepro Tech, for STAT3 phosphorylation). Cells were treated with test compound or DMSO for 1 h (final DMSO concentration 0.2%). K562 cells (1.5 × 10^6 cells per well) were seeded in 6-well plates (Corning #3516) and were treated with test compound or DMSO for 1.5 h (final DMSO concentration 0.2%). […] Afterwards, cells were treated with the test compounds or DMSO (final DMSO concentration: 0.2%) for 24 h. Afterwards, the cells were washed twice with cold phosphate buffered saline (PBS). […]
(§1) Lysates were separated on a polyacrylamide gel under denaturing conditions, and transferred to a nitrocellulose membrane. STAT phosphorylation was assessed using rabbit monoclonal antibodies against the phosphorylated forms only of STAT1, STAT3 or STAT5 (Cell Signaling, 1:1000) with secondary antibody swine anti-rabbit HRP from Dako, 1:3000), followed by reblotting with rabbit monoclonal antibodies against total STAT1, STAT3 or STAT5 (Cell Signaling), and subsequently β-actin loading control. […]

[2] = tested on: STAT1 Tyr701 phosphorylation; assay: Western Blot, IFN-γ-stimulated STAT1 Tyr701 phosphorylation in HepG2 cells; type: cell-based, human; details: 1 h pre-treatment, 15 min 50 ng/mL IFNγ
Source text: (§2) An inhibitor of a STAT SH2 domain prevents phosphorylation of STATs at this conserved tyrosine residue, thereby inhibiting STAT-mediated signal transduction (Fig. 3a). Consistent with its activity in the FP assay, 8 inhibited interleukin (IL)-6-stimulated STAT3 Tyr705 phosphorylation in HepG2 cells in a dose-dependent manner (Fig. 3b). […] In contrast, tyrosine phosphorylation of STAT5 in K562 cells is not inhibited (Fig. 3d). The activity profile in cells thus reflects the selectivity profile seen in vitro (Fig. 2a, Table 1), supporting the notion that cellular activities are mediated by functional inhibition of the STAT SH2 domains.
(§3) HepG2 cells were plated in 6-well plates (Corning #3516) and allowed to reach approximately 60% confluence. The medium was then replaced with serum-free medium for 24 h. […]
as §1

[3] = tested on: STAT3 Tyr705 phosphorylation; assay: Western Blot, IL-6-stimulated STAT3 Tyr705 phosphorylation in HepG2 cells; type: cell-based, human; details: 1 h pre-treatment, 30 min 50 ng/mL IL-6
Source text: as §2, §3, §1

STAT3 Glu594Ala mutant = STAT3 Glu594Ala mutant (Homo sapiens, UniProt P40763, E594A); assay: FP assay against STAT3 Glu594Ala mutant; type: binding
Sequence of STAT3 Glu594Ala mutant (P40763 whole entry E594A): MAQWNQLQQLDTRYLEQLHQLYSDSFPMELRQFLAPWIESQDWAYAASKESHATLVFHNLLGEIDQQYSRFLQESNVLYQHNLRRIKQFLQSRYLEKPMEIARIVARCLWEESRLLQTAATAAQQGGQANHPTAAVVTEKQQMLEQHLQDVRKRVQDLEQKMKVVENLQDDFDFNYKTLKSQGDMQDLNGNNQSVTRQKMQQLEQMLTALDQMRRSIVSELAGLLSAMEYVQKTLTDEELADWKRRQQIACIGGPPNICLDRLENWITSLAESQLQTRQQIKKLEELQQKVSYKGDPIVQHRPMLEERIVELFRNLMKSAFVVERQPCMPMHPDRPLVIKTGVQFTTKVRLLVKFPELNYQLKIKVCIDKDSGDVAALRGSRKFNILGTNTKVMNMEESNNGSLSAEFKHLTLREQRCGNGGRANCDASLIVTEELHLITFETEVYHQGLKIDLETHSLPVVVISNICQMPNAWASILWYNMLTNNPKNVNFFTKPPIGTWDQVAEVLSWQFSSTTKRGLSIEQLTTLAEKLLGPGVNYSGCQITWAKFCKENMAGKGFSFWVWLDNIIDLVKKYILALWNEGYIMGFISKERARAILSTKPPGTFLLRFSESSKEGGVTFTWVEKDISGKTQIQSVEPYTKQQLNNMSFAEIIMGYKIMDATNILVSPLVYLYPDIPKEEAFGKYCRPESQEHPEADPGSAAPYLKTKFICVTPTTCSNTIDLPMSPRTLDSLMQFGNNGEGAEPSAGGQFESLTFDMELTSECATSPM
Source text: The predicted (E)-trans-configuration of the acyl hydrazone moiety in the protein-bound state was also observed in the X-ray structure of crystals of 8 grown from ethyl acetate / hexane (Supplementary Fig. S4). Substantial conformational changes of the protein are required for ligand binding (Supplementary Fig. S3), a process which can account for the observed time-dependence of inhibition by 8 (Supplementary Fig. S5). […] Substitution of the pyridyl ring for electron-rich, five-membered heteroaromatic rings is tolerated (17–19). […] This behavior is consistent with hydrogen bonding between the molecules’ carbonyl group and the backbone amide of Gln635 as proposed by the docking studies (Fig. 2b), which is expected to suffer from electron-withdrawing substituents on the phenyl ring. Further evidence for hydrogen bonding arises from the inactivity of derivative 22, in which the carbonyl group has been deleted. Substitution of the carbonyl by a sulfonyl group (compound 23) is also not tolerated, indicating specific recognition of 8 by STAT3.
This reduction tails off, consistent with the idea that inhibition of STAT3 by 8 is a slow but reversible process. […]
easily susceptible to covalent modification by nucleophiles. […] C) Activity of 8 in a fluorescence polarization assay against wild-type STAT3 or a STAT3 Glu594Ala mutant after 2 h incubation in the presence of 1 mM DTT. […]

[4] = NMR-based stability analysis (hydrolysis of acyl hydrazone to aldehyde); type: physicochemical; details: deuterated phosphate buffer pD = 7.9 with DMSO-d6, 24 h
Description: The formation of acyl hydrazones from aldehydes is a reversible reaction. […] The strongly divergent relative activities of the aldehydes 8a and 9a compared to the acyl hydrazones 8 and 9 imply that the activity of the acyl hydrazones is not a consequence of aldehyde formation.
Na2DPO4 (C/D/N Isotopes, 8.5 mM) and NaD2PO4 (C/D/N Isotopes, 3.3 mM) were dissolved in D2O to give a total phosphate concentration of 11.8 mM. The measured pH of 7.5 corresponds to a pD of 7.91 according to the literature.
This reduction tails off, consistent with the idea that inhibition of STAT3 by 8 is a slow but reversible process. An alternative explanation for time-dependent inhibition would be covalent modification of the Michael acceptor of the chromones by the protein. While we cannot formally exclude this possibility, two observations argue against cysteine alkylation as the […]
double bond of 8. B) Secondly, omission of the strong nucleophile dithiothreitol (DTT) from the assay […]
easily susceptible to covalent modification by nucleophiles. Data after 2 h of incubation are shown. C) Activity of 8 in a fluorescence polarization assay against wild-type STAT3 or a STAT3 Glu594Ala mutant after 2 h incubation in the presence of 1 mM DTT. […]

STAT5 phosphorylation = assay: Western Blot, STAT5 tyrosine phosphorylation in K562 cells; type: cell-based, human
Source text: as §2, §3, §1

activity against STAT3 Glu594Ala mutant compared to wild-type STAT3 (STAT3 Glu594Ala mutant)	IC50 (STAT3 Glu594Ala mutant; 2 h incubation, 1 mM DTT, read-out: app. IC50 against STAT3 Glu594Ala mutant)	SMILES	increase in rate of apoptosis relative to DMSO control (parental HCC-827 cells)	STAT3 Tyr705 phosphorylation [1]	IFN-γ-stimulated phosphorylation of STAT1 Tyr701 [2]	IL-6-stimulated STAT3 Tyr705 phosphorylation [3]	hydrolysis to the aldehyde (1H-NMR) [4]	tyrosine phosphorylation of STAT5 (STAT5 phosphorylation)
–	–	CCC(C)(C)c1ccc2occ(/C=N/NC(=O)c3cccnc3)c(=O)c2c1 [Compound 9]	did not significantly increase apoptosis; also recorded: did not increase the apoptotic rate	did not reduce STAT3 Tyr705 phosphorylation	–	–	–	–
three-fold lower activity	27 ± 1 µM	CC(C)(C)c1ccc2occ(/C=N/NC(=O)c3cccnc3)c(=O)c2c1 [Compound 8]	up to four-fold increase	dose-dependent inhibitory effect	inhibited to a lesser extent	inhibited	no sign of hydrolysis; also recorded: no sign of aldehyde release	not inhibited

Source: publication PMC5727211, “Development of Erasin: a chromone-based STAT3 inhibitor which induces apoptosis in Erlotinib-resistant lung cancer cells” (Scientific Reports, 2017)
